The subject of experiment [1] is HT-1376 cells. The experiment in a line: Cytokine protein array analysis of secreted cytokines. Format: cell-based, human. As for the experimental part:
MIF plays a key role in pro-inflammatory gene and cytokine expression. Therefore changes in MIF expression or protein content are likely to affect the expression of additional cytokines. This may in fact be a key in the utility of MIF inhibition in treating bladder adenocarcinoma. To test this, cytokine expression changes induced by MIF inhibition were also evaluated by cytokine protein array analysis (Ray Biotech, Norcross, Ga.), which detected secreted cytokines. […] A summary of the cytokine secretion changes (2 fold or greater) seen with MIF inhibition is described in Table 1.
HT-1376 cells express and secrete 65 of the 79 cytokines present on the array. The three types of MIF inhibition all affected the cytokine secretion patterns of these cells. In table 1, blank cells indicate no difference between the amounts of cytokine secreted by the treated and control cells. Arrows indicate an increase or decrease in the fold amount of cytokine secreted. […] Healon decreased the secreted amount of 27 cytokines.

Experiment [2] relates to Human bladder HT-1376 cells. As to the kind of experiment: Caspase-3 activity in cell lysates of 48 h cultures (apoptosis). Format: cell-based. The conditions noted are these: ANOVA, Newman-Keuls, p<0.05. On the procedure: The reduction in cell proliferation seen with MIF inhibitor treatment could possibly be due to induction of apoptosis. To assess this we determined caspase-3 activity within the cell lysates of 48 h cultures.

Experiment [3] concerns HT-1376 bladder epithelial cells. As to the kind of experiment: MIF protein synthesis and secretion (cellular and secreted MIF). Format: cell-based, human. The conditions noted are these: HT-1376 cells, in vitro treatment. As for the experimental part:
In order to establish the relevance of MIF to urogenital disease in humans we sought to determine if human bladder epithelial cells secrete MIF. Human bladder HT-1376 cells (ATCC, Manasas, Va.) were cultured for 48 hours and the culture medium was assayed for MIF using ELISA. In addition, intracellular content of MIF was assayed from cell lysates. These human bladder adenocarcinoma cells synthesize MIF ([…]). The average MIF concentration secreted into the medium by these cells was 15 ng/ml. Expression of MIF was confirmed by RT-PCR analysis. Thus establishing MIF secretion by human bladder epithelia.
Next, we determined if addition of MIF inhibitors in the culture media changed the synthesis or release of MIF by these cells.
A human MIF-specific “sandwich” ELISA technique was developed, based on the capture of MIF by immobilized monoclonal antibody (MAB289, R&D Systems) followed by detection with goat polyclonal anti-MIF affinity purified IgG (BAF289, R&D Systems). This assay was successfully used previously to detect MIF levels in serum and urine. This is another application of this protocol in which MIF levels are detected in urine for bladder cancer diagnosis and prognosis. Intravesical MIF inhibitors are a potential new treatment for bladder cancer. […]

Where [4] appears, read: fold vs control, ↓ decrease ↑ increase, Not detected = no longer detectable after treatment.

Turning to hyaluronan [Healon], the “number of secreted cytokines whose amount was decreased” value in experiment [1] (65 of the 79 cytokines on the array expressed) was 27. In experiment [1] (setting [4]), the “Secreted Cytokines: Ang” value is listed as “Not detected”, the “Secreted Cytokines: Ckβ 8-1” value is reported as “Not detected”, the “Secreted Cytokines: Eotaxin” value is listed as “Not detected” and the “Secreted Cytokines: Eotaxin-3” value was “Not detected”. Also, in experiment [1] (setting [4]), the “Secreted Cytokines: IGF-1” value is reported as “Not detected”, the “Secreted Cytokines: IL-1β” value is given as “no affect”, the “Secreted Cytokines: MIF” value is reported as “Not detected” and the “Secreted Cytokines: MIP-3α” value is listed as “Not detected”. Besides, the “Secreted Cytokines: TNF-α” value in experiment [1] (setting [4]) is recorded as “Not detected”. In addition, the caspase-3 activity entry in experiment [2] is given as “no significant increase”. Further, in experiment [3], the “decrease in secreted (extracellular) MIF” value is reported as 2.8 fold and the “increase in cellular MIF content” value is on record as 2 fold.
